Measurements from patent publication US12558405B2, “Pharmaceutical composition using endogenous cells for preventing or treating musculoskeletal disorders” (SEOUL NATIONAL UNIVERSITY R&DB FOUNDATION, priority 2019, dated 2026).

B1: G-CSF: positive control of chemotaxis, 100 ng/mL (protein, UniProt P09919 31-207, looked up)
Granulocyte …: TPLGPASSLPQSFLLKCLEQVRKIQGDGAALQEKLVSECATYKLCHPEELVLLGHSLGIPWAPLSSCPSQALQLAGCLSQLHSGLFLYQGLLQALEGISPELGPTLDTLQLDVADFATTIWQQMEELGMAPALQPTQGAMPAFASAFQRRAGGVLVASHLQSFLEVSYRVLRHLAQP

How the values were obtained:
[1] = tested on: bone marrow stem cells; assay: Chemotaxis of stem cells, Boyden chamber assay; type: cell-based; details: 24 hours; control group (antibiotic) = 100.00; composition 10% of medium volume, positive controls 100 ng/mL
Protocol: 1×10^4 bone marrow stem cells were seeded onto an upper insert of a transwell and cultured for 24 hours in LG DMEM containing an antibiotic (HyClone, Thermo Fisher Scientific Inc., Waltham, MA, USA). […] LG DMEM not containing FBS was used as a negative control group, and G-CSF 100 ng/mL, SDF-1α 100 ng/mL and IL-1β 100 ng/mL were compared as positive control groups of chemotaxis. In order to count the cells that migrated from the insert to the bottom, the cells remaining on the insert was removed 24 hours later and only the cells at the bottom were left. After fixing with 4% paraformaldehyde and staining with crystal violet, the cells were observed under a microscope. For quantification of the cells that migrated to the bottom, OD540 was measured after dissolving the crystal violet with acetic acid. All experiments were repeated 3 times.

[2] = tested on: bone marrow stem cells; assay: Chemotaxis of stem cells, agarose chemotaxis assay; type: cell-based; details: 72 hours; control group (antibiotic) = 100.00; composition 50% of medium volume, positive controls 100 ng/mL
Protocol: First, after preparing 0.8% agarose gel on a 6-well plate, three holes were perforated in each well with intervals of 5 mm using a 5-mm skin biopsy punch. 1×10^4 bone marrow stem cells were dispensed into LG DMEM containing 10% FBS and an antibiotic at the center. After waiting for 5 hours until the cells were attached, the medium was replaced with LG DMEM containing the antibiotic only. […] In addition, G-CSF 100 ng/mL, SDF-1α 100 ng/mL and IL-1β 100 ng/mL were treated for comparison as positive control groups of chemotaxis. 72 hours later, the cells were fixed with 4% paraformaldehyde, stained with DAPI and observed with a fluorescence microscope. The cells that migrated to the left and right sides were imaged with the fluorescence microscope. The number of cells that migrated 100 μm or longer from the end of each hole was counted. All experiments were repeated 3 times.

| Molecule | Number of migrated cells [1] | Number of migrated cells [2] |
| --- | --- | --- |
| IL-1β: positive control of chemotaxis, 100 ng/mL | 358.85 ± 271.58 | 314.13 ± 220.72 |
| SDF-1α: positive control of chemotaxis, 100 ng/mL | 365.28 ± 280.55 | 466.68 ± 348.04 |
| B1 | 415.01 ± 338.54 | 393.76 ± 280.52 |
